In PMC7018653 (mBio, 2020):
Converted amounts (≈) assume the structure as drawn. Read-outs that look alike come from different tables or passages of the source. Residues, ends and D or L forms follow the SMILES beside them. *: point of attachment. βNA = c1ccc2cc(N*)ccc2c1

Columns and labels:
[1] = ref supplement refs 1-13 as given per antibiotic; cited from earlier work
in vitro [2] = details: Klebsiella pneumoniae, not told
in vitro [3] = details: Klebsiella pneumoniae, not told; remark: listed apart in the source
[4] = tested on: K. pneumoniae isolate (KP3800); assay: agar MIC according to CLSI guidelines; assay type: cell-based, Klebsiella pneumoniae
[5] = tested on: E. cloacae isolate (EC3800); assay: agar MIC according to CLSI guidelines; assay type: cell-based, Enterobacter cloacae
[6] = critically ill patients; ref supplement refs 1-13 as given per antibiotic; cited from earlier work
E. cloacae complex = details: cited from earlier work
[7] = tested on: polymyxin-susceptible E. cloacae isolate EC3800; details: for OM permeability of imipenem, fold faster than meropenem: E. cloacae EC3800
[8] = tested on: polymyxin-resistant K. pneumoniae isolate KP3800; details: for OM permeability coefficient, fold smaller in KP3800 compared to EC3800: KP3800 vs EC3800
[9] = basic group carrying the positive charge; no reference given; cited from earlier work
in vitro [10] = details: Enterobacter cloacae, not told, pH 7, Avg OM permeability coefficient (nm/s) ± SD
P. aeruginosa = details: not told; cited from earlier work
[11] = pH 7, Avg OM permeability coefficient (nm/s) ± SD, Cassette K. pneumoniae, efflux: with 25 mg/liter PAβN, two biological replicates
[12] = pH 7, Avg OM permeability coefficient (nm/s) ± SD, Cassette K. pneumoniae, three biological replicates
[13] = pH 7, Avg OM permeability coefficient (nm/s) ± SD, Discrete K. pneumoniae, three biological replicates
[14] = Cassette E. cloacae, efflux: with 25 mg/liter PAβN, two biological replicates
[15] = Cassette E. cloacae, three biological replicates
[16] = Discrete E. cloacae, three biological replicates

Compound | Papp (in vitro [2]; [11]) [×10⁻⁶ cm/s] | Papp (in vitro [2]; [12]) [×10⁻⁶ cm/s] | Papp (in vitro [2]; [13]) [×10⁻⁶ cm/s] | MIC ([4]; Klebsiella pneumoniae) [µg/mL] | MIC ([5]; Enterobacter cloacae) [µg/mL] | Mean Clearance [6] [L/h] | further results
C[C@H]1[C@H](NC(=O)/C(=N\OC(C)(C)C(=O)O)c2csc(N)n2)C(=O)N1S(=O)(=O)O [Aztreonam, aztreonam] | < 0.3 | < 0.3 | 0.864 ± 0.846 | – | – | – | Fraction bound in plasma (%) [1]: 51.5%; Papp (in vitro [3]): 0.74 ×10⁻⁶ cm/s
CO/N=C(\C(=O)N[C@@H]1C(=O)N2C(C(=O)[O-])=C(C[N+]3(C)CCCC3)CS[C@H]12)c1csc(N)n1 [Cefepime, cefepime] | < 0.3 | < 0.3 | 1.36 ± 0.926 | 128 (≈ 266 µM) | 16 (≈ 33.3 µM) | – | –
CC(C)(O/N=C(\C(=O)N[C@@H]1C(=O)N2C(C(=O)[O-])=C(C[n+]3ccccc3)CS[C@H]12)c1csc(N)n1)C(=O)O [Ceftazidime, ceftazidime] | < 0.3 | < 0.3 | < 0.3 | 64 (≈ 117 µM) | 16 (≈ 29.3 µM) | 9.22 | Papp (in vitro [2]; pH 7, Outer membrane permeability coefficients (nm/s), KP3800, discrete assay, average ± SD, three replicates (Table S2)): < 0.3 ×10⁻⁶ cm/s; Papp (in vitro [2]; pH 7, permeability coefficient, KP3800, degradation too slow to be reliably determined in intact bacteria, 'likely'): < 0.3 ×10⁻⁶ cm/s; permeability coefficients (E. cloacae complex): 0.1 ×10⁻⁶ cm/s
C[C@@H](O)[C@H]1C(=O)N2C(C(=O)O)=C(SCCN=CN)C[C@H]12 [Imipenem, imipenem] | 72.3 ± 12.4 | 90.7 ± 6.57 | 204 | 128 (≈ 428 µM) | 4 (≈ 13.4 µM) | 12.4 | OM permeability of imipenem, fold faster than meropenem [7]: at least 7 fold; OM permeability of imipenem, fold faster than meropenem ([7]; listed as imipenem): ~7 fold; OM permeability of imipenem, fold faster than aztreonam ([7]; EC3800): ~2,000 fold; OM permeability of imipenem, fold faster than cefepime ([7]; EC3800): 258 fold; OM permeability coefficient, fold smaller in KP3800 compared to EC3800 [8]: approximately 5 fold; Fraction bound in plasma (%) [1]: 9.1%; pKa2 [9]: 10.6; Papp (in vitro [10]; [14]): 393 ×10⁻⁶ cm/s; Papp (in vitro [10]; [15]): 577 ×10⁻⁶ cm/s; Papp (in vitro [10]; [16]): 666 ×10⁻⁶ cm/s; OM permeability of imipenem over meropenem, fold faster (P. aeruginosa): 2.74 fold
C[C@@H](O)[C@H]1C(=O)N2C(C(=O)O)=C(S[C@@H]3CN[C@H](C(=O)N(C)C)C3)[C@H](C)[C@H]12 [Meropenem, meropenem] | 5.75 ± 2.17 | 9.07 ± 0.689 | 8.33 ± 0.917 | > 256 | 4 (≈ 10.4 µM) | 10.4 | OM permeability coefficient, fold smaller in KP3800 compared to EC3800 [8]: ~10 fold; pKa2 [9]: 8.3; Papp (in vitro [10]; [14]): 40.2 ± 6.98 ×10⁻⁶ cm/s; Papp (in vitro [10]; [15]): 84.3 ± 29.2 ×10⁻⁶ cm/s; Papp (in vitro [10]; [16]): 72.9 ± 15.5 ×10⁻⁶ cm/s
N=C(N)NCCC[C@H](NC(=O)[C@@H](N)Cc1ccccc1)C(=O)Nc1ccc2ccccc2c1 [PAβN, phenylalanine-arginine β-naphthylamide] (H-Phe-Arg-βNA) | – | – | – | – | – | – | effect of efflux pump inhibitor on OM permeability estimates of the β-lactams ([7]; EC3800, PAβN 25 mg/liter, cassette assay): did not significantly affect; effect of efflux pump inhibitor on OM permeability estimates of the β-lactams ([8]; KP3800, PAβN 25 mg/liter, cassette assay): did not significantly affect
polymyxin | – | – | – | – | – | – | MIC ([4]; KP3800): 64 µg/mL; MIC ([5]; EC3800): 0.5 µg/mL
